# Laboratory results from patent US20220409578A1, “FUNCTIONALIZED 1,3-BENZENE DIOLS AND THEIR METHOD OF USE FOR THE TREATMENT OF RADIATION DERMATITIS AND OTHER SKIN DISORDERS” (KANNALIFE SCIENCES, INC., priority 2019, published 2022).
# Legend:
# [1] = tested on: human 3D cornea-like EPIOCULAR; assay: Eye irritation, EPIOCULAR reconstructed cornea-like model, OECD 492 (MTT); type: cell-based; conditions: human, 30 min
# Procedure: Ocular irritancy: The purpose of this study was to evaluate any potential ocular irritation activity of KLS-13022 formulations compared to vehicle-only treated tissues in vitro on human 3D cornea-like EPIOCULAR by topical application according to OECD 492 protocol. Test formulations of KLS-13022 up to 3% w/v in 60:40 ethanol:water vehicle were prepared fresh before use. EPIOCULAR tissues were acclimated before treatments for 24 hours and later treated topically for 30 minutes with KLS-13022 (0.01, 0.1, 0.3 1, 3% w/v). Methyl acetate was used as positive eye irritant control. Tissue viability levels were measured by MTT reduction assay method after material treatments. The levels of tissue viability after each material treatment was compared to vehicle control group to determine any potential ocular irritation activity.
# Average levels of tissue viability were calculated for each treatment group. According to OECD 492 protocol, predicted positive eye irritation activities were determined when obtaining <60% tissue viability. […] Primary cornea-like inserts were used from human origin and purchased from MatTek (Ashland, Mass.). […] Tissues were cultured with standard conditions (37° C., 95% v/v air, 5% v/v CO2) and acclimated for 18+3 hours before dosing procedures.
# [2] = tested on: IL-8; assay: IL-8 release, nickel-induced allergy in human dermal microvascular endothelial cells (ELISA); type: cell-based; conditions: co-treatment with NiSO4, HDMECs
# Procedure: Dermal Microvascular endothelial cells of human origin were cultured in vitro using standard conditions (37° C., 95% v/v air, 5% v/v CO2). Human cells were selected as relevant to cell types within skin tissues for this development program. Cell culture methods are commonly used in non-clinical studies conducted on pharmaceutical products. […] Cells were cultured until the third and fourth passage and then acclimated for 24 hours before Nickel induction and dosing procedures. Cell treatment groups were identified using appropriate 96-well plates. The test and control articles were administered to medium containing 1 mM NiSO4 in triplicates. The negative control group received vehicle-only (0.1% v/v final) dose. A fixed 0.1 μL/well from 1000× stock dose volume was administered to 100 μL of media to each cell culture well on Day 2 and incubated for 6 hours at 37 degrees. These cell cultures were also utilized to determine the concentrations of test agent that were non-toxic after 24 hours of incubation.
# Assay for Interleukin-8: Test material was applied in vitro for the ability to inhibit pro-inflammatory (IL-8) cytokine secretion by cultured HDMECs co-treated with Nickel (NiSO4). Clobetasol propionate was tested as positive control material for anti-inflammatory activity. The pro-inflammatory cytokine (IL-8) was quantified by enzyme-linked immunosorbent assay (ELISA) after inflammatory induction and incubation with test and control materials. Interleukin-8 levels in cell culture medium are markers of inflammation signaling by endothelial cells present in skin microvascular tissue in response to irritation. Interleukin-8 (IL-8) levels were assessed using BD Biosciences OptEIA™ Human IL-8 ELISA Set kit (Cat. No. 555244) and Reagent Set B (Cat. No. 550534) according to the manufacture's specifications. Absorbance was measured at 450 nm using plate reader and interleukin-8 levels were calculated from a standard curve.
# [3] = Antioxidant capacity (ABTS/metmyoglobin assay); type: biochemical; conditions: OD 750 nm, 15 minutes after hydrogen peroxide
# Procedure: Antioxidant capacity: The purpose of this study was to evaluate the overall antioxidant capacity of KLS-13022 for the ability to inhibit the oxidation of ABTS. (2,2′-Azino-di-[3-ethylbenzthiazoline sulphonate]) to ABTS.^+ by metmyoglobin. Ascorbic acid (Vitamin C) was used as positive antioxidant control in the assay. The testing involved the suppression of optical density (OD) at 750 nm to a degree, which is proportional to an effective oxidation inhibition. Neat solutions were prepared for materials formulated in HPLC-grade water (ascorbic acid) or 200-proof ethanol (KLS-13022). Serial dilutions were prepared for each material and mixed with metmyoglobin enzyme in assay buffer solution. All samples were compared to vehicle-only treated samples used as negative oxidation inhibition. Optical density changes at 750 nm were evaluated 15 minutes after addition of hydrogen peroxide to each sample. Average absorbance was calculated and plotted for each sample concentration. Effective antioxidant inhibition activity based on the change of absorbance of blank (vehicle-only) sample (no material added). […] The Antioxidant assay kit was obtained from Cayman Chemical Co. (Ann Arbor, Mich.). The assay consisted in the evaluation of the overall antioxidant capacity of test materials for the ability to inhibit the oxidation of ABTS. to ABTS.^+ by metmyoglobin. […]
# [4] = tested on: IL-1β; assay: IL-1β release from UV-B irradiated human epidermal keratinocytes (ELISA); type: cell-based; conditions: Keratinocyte, light or radiation study; UV-B 25 mJ/cm^2, human epidermal keratinocytes; read-out: IC50 of interleukin-1β inhibition
# Procedure: Normal human epidermal keratinocytes cultures were utilized to measure the release of proinflammatory cytokines and chemokines. Primary epidermal keratinocytes from neonatal donors were used from human origin and purchased from Thermo-Fisher (Cat No. A13401). […] Cells were cultured until the second passage and then acclimated for 48 hours more before UV-B irradiation. Dosing procedures and cell groups were identified using appropriate cell culture 24-well plates. The cell culture incubator was set at 5% v/v CO2 with temperature and humidity maintained at 36-38° C. and 40-70%, respectively. The test and control substances were administered to HKGS-depleted medium in triplicates. A fixed 5 μL/well from 100× stock dose volume was administered to 500 μL of media to each cell culture well on Day 3 and pre-incubated for 6 hours and then post-UVB incubated for 18 hours. […] Media supernatants were harvested and analyzed for TNFα and IL-1β levels by ELISA method. Cytokine levels were assessed from cell culture media supernatants using BD Biosciences OptEIA™ Human TNFα (Cat. No. 555212) and IL-1β (Cat. No. 557953) and ELISA set kit and Reagent Set B (Cat. No. 550534) according the manufacture's specifications. Absorbance was measured at 450 nm using a plate reader and calculated cytokine levels were determined from a standard curve.
smiles,measurement,setting,value
"C=C(C)[C@@H]1CCC(C)=C[C@H]1c1c(O)cc(CC2CN(C(=O)OCC)C2)cc1O [KLS-13022, ethyl 3-(3,5-dihydroxy-4-((1R,6R)-3-methyl-6-(prop-1-en-2-yl)cyclohex-2-enyl)benzyl)azetidine-1-carboxylate]",tissue viability,[1],≥ 60%
same,IC50,"[2]; Homo sapiens, Endothelial cell, read-out: IC50 of IL-8 inhibition",0.3 µM
same,maximum IL-8 inhibition,[2],78%
same,EC50,[3],25.6 µM
same,IC50,[4],0.38 µM
